In patent EP0063827A1, “1-Isopropyl- and 1-isobutyl-3,7-dimethyl xanthine as pharmaceutical preparations” (SOCIETE DES PRODUITS NESTLE S.A., priority 1980, dated 1980):

Experiments:
[1] = system: anxiété induite par un nouvel environnement; assay: Behavioural study in rats: locomotion and rearing counts under anxiety induced by a new environment; format: in vivo, rat; conditions: for profil d'action: conclusion in words from the behavioural study in the rat; for d/r: ratio of slope of déplacements to slope of redressements, specificity of effect on anxiety
Source text: La 1-isopropyl- et la l-isobutyl-3,7-diméthylxan- thine ont fait l'objet d'une étude comportementale chez le rat en fonction de l'anxiété induite par un nouvel environnement. Chez le rat, l'anxiété se manifeste par des redressements de celui-ci sur ses deux pattes postérieures, tandis que ses déplacements sont l'expression de l'activité locomotrice.
• - L'induction d'un état d'anxiété s'effectue par confrontation de rats mâles "naïfs" Sprague-Dawley (Iffa-Credo, France), pesant 260 à 300 g avec un nouvel environnement constitué par des cages en Macrolon ^0 (30 x 25 cm) qui se situent dans une chambre insonorisée et climatisée (22°C et 50 % d'humidité relative). • - La détermination du nombre de redressements et de déplacements a lieu de façon automatique à partir de cellules photo-électriques à infrarouge qui n'émettent des impulsions électriques que pour les mouvements francs de l'animal et pas pour les mouvements statiques comme ceux de la tête et de la queue et ceci pour des raisons de reproductibilité. Ces cellules photo-électriques quadrillent les cages à deux niveaux différents de façon à distinguer les redressements des déplacements. Le nombre de redressements et de déplacements est compté par les deux séries de cellules photo-électriques, mémorisé et restitué sur une imprimante selon un programme préétabli. • - On administre oralement par intubation oesophagienne le composé testé en solution, l'administration de référence étant constituée par 6 ml/kg d'eau distillée, et ceci 30 minutes avant de placer les animaux dans les cages. Le nombre de redressements et de déplacements est déterminé durant les 15 minutes qui suivent la mise en cage, par rapport à l'effet engendré par l'administration de référence.
• - Le tableau I ci-après montre l'évolution des effets des substances testées sur le nombre de déplacements et de redressements en fonction des doses administrées exprimé en pourcentage des déplacements et redressements comptés pour l'administration de référence. [formula] • - A partir des données précédentes, on établit les droites de régression pour les déplacements et les redressements selon la méthode décrite par Saubrié, P.J. Pharmacol, (Paris) 2 (1971) 457-472, l'équation de ces droites de régression correspondant à la moyenne exprimée en % des performances des références en fonction produit par 10 du logarithme des doses (on ne considère que les doses ne diminuant pas l'activité motrice de plus de 75 %). • - La comparaison des pentes des droites de régression correspondant aux déplacements et aux redressements est effectuée en portant sur un système d'axes orthonormés en abscisse (d) la valeur de la pente de la droite des déplacements et en ordonnée (r) celle de la pente des redressements. Ces valeurs mettent en évidence la relation effet-dose pour une substance donnée. • - On détermine également le rapport de la pente des déplacements sur celle des redressements qui permet de juger de la spécificité d'effet d'une substance donnée sur l'anxiété.
La détermination de l'effet d'une substance est donnée par sa localisation par rapport à la droite d = r de pente = 1. Les substances situées sur cette droite ont un effet semblable sur les redressements et les déplacements. Les substances pour lesquelles la valeur absolue de la pente des redressements est significativement supérieure à celle des déplacements ont une action spécifique sur l'anxiété.

[2] = system: enflement de l'oreille chez la souris; assay: Delayed cutaneous hypersensitivity test (oxazolone), inhibition of ear swelling; format: in vivo; conditions: for % d'inhibition de l'enflement d'oreille: dose 150 mg/kg de poids corporel, ear thickness 24 h after challenge, relative to control
Method: L'activité immunosuppressante a été comparée à celle du cyclophosphamide, médicament immunosuppressant connu, comme inhibiteur de l'enflement de l'oreille chez la souris en réponse à l'agression antigénique dans un test d'hypersensibilisation cutanée retard à la dose de 150 mg/kg.
Le test a été conduit par exemple comme décrit par G.L. Asherson et W. Ptak dans Immunology 15, 405 (1968). Des souris ont été immunisées par application cutanée abdominale de 0,1 ml d'une solution à 3 % d'oxazolone. 7 jours après la sensibilisation, les animaux ont été provoqués par peinture de la même solution sur la peau de l'oreille. On a administré simultanément soit le composé ci-dessus soit le cyclophosphamide à une partie des animaux, les animaux restants servant de contrôle. 24 heures après l'agression, on a mesuré l'épaisseur de l'oreille. L'activité immunosuppressante exprimée en % de l'inhibition de l'enflement de l'oreille par rapport au contrôle est indiquée ci-après : […]

| Compound | profil d'action [1] | d/r [1] | % d'inhibition de l'enflement d'oreille [2] | also measured |
| --- | --- | --- | --- | --- |
| CC(C)Cn1c(=O)c2c(ncn2C)n(C)c1=O [1-isobutyl-3,7-diméthylxanthine] | sédatif non spécifique | – | – | profil d'action ([1]; listed as l-isobutyl-3,7-diméthylxanthine): effet sédatif comparable à celui d'un neuroleptique type |
| CC(C)n1c(=O)c2c(ncn2C)n(C)c1=O [1-isopropyl-3,7-diméthylxanthine] | – | < 1 | – | – |
| CNC1=Nc2ccc(Cl)cc2C(c2ccccc2)=[N+]([O-])C1 [chlordiazépoxide, reference compound] | – | < 1 | – | – |
| O=P1(N(CCCl)CCCl)NCCCO1 (stereo not drawn) [cyclophosphamide, reference compound] | – | – | 73% | – |
| Cn1cnc2c1c(=O)n(Cn1c(=O)c3c(ncn3C)n(C)c1=O)c(=O)n2C [di(3,7-diméthylxanthin-1-yl)méthane] | – | – | 55% | activité immunosuppressante ([2]; result in words): a montré une activité immunosuppressante |
| Cn1c(=O)c2[nH]cnc2n(C)c1=O [théophylline, reference compound] | psychostimulante et n'a pas d'effet sur l'anxiété | > 1 | – | – |
